Measured values as given in ChEMBL document CHEMBL1667793, “Synthesis and DNA photocleavage by a pyridine-linked bis-acridine chromophore in the presence of copper(II): ionic strength effects” (Bioorg Med Chem Lett, 2011).
Active and inactive are the calls of the source. No cut-off for these calls is given here.

Tests used:
Format in all cases: nucleic-acid assay
Nucleic Acid [1] = experiment: Induction of Escherichia coli pUC19 DNA cleavage assessed as conversion of supercoiled DNA to nicked and linear form of DNA at 2 to 50 uM after 60 mins by ethidium bromide staining
Nucleic Acid [2] = experiment: Induction of Escherichia coli pUC19 DNA cleavage assessed as conversion of supercoiled DNA to nicked and linear form of DNA at 10 uM irradiated for 50 mins measured after 60 mins by ethidium bromide staining
Nucleic Acid [3] = experiment: Induction of Escherichia coli pUC19 DNA cleavage assessed as conversion of supercoiled DNA to nicked and linear form of DNA at 2 to 20 uM irradiated for 50 mins measured after 60 mins by ethidium bromide staining in presence of 1 mol equivalent of copper chloride
Nucleic Acid [4] = experiment: Inhibition of Escherichia coli pUC19 DNA photocleavage assessed as conversion of supercoiled DNA to nicked form of DNA at 10 uM after 1 hr followed by irradiated for 60 mins by ethidium bromide staining in presence of 100 uM of sodium benzoate
Nucleic Acid [5] = experiment: Inhibition of Escherichia coli pUC19 DNA photocleavage assessed as conversion of supercoiled DNA to nicked form of DNA at 10 uM after 1 hr followed by irradiated for 60 mins by ethidium bromide staining in presence of 100 uM of sodium azide
Nucleic Acid [6] = experiment: Inhibition of Escherichia coli pUC19 DNA photocleavage assessed as conversion of supercoiled DNA to linear form of DNA at 10 uM after 1 hr followed by irradiated for 60 mins by ethidium bromide staining in presence of 100 uM of sodium benzoate
Nucleic Acid [7] = experiment: Inhibition of Escherichia coli pUC19 DNA photocleavage assessed as conversion of supercoiled DNA to linear form of DNA at 10 uM after 1 hr followed by irradiated for 60 mins by ethidium bromide staining in presence of 100 uM of sodium azide
Nucleic Acid [8] = experiment: Inhibition of Escherichia coli pUC19 DNA photocleavage at 10 uM after 1 hr followed by irradiated for 60 mins by ethidium bromide staining in presence of 100 uM of sodium benzoate
Nucleic Acid [9] = experiment: Inhibition of Escherichia coli pUC19 DNA photocleavage at 10 uM after 1 hr followed by irradiated for 60 mins by ethidium bromide staining in presence of 100 uM of sodium azide
Nucleic Acid [10] = experiment: Inhibition of Escherichia coli pUC19 DNA photocleavage assessed as conversion of supercoiled DNA to nicked form of DNA at 10 uM after 1 hr followed by irradiated for 60 mins by ethidium bromide staining in presence of 100 uM of sodium benzoate and 1 mol equivalent of copper chloride
Nucleic Acid [11] = experiment: Inhibition of Escherichia coli pUC19 DNA photocleavage assessed as conversion of supercoiled DNA to nicked form of DNA at 10 uM after 1 hr followed by irradiated for 60 mins by ethidium bromide staining in presence of 100 uM of sodium azide and 1 mol equivalent of copper chloride
Nucleic Acid [12] = experiment: Inhibition of Escherichia coli pUC19 DNA photocleavage assessed as conversion of supercoiled DNA to linear form of DNA at 10 uM after 1 hr followed by irradiated for 60 mins by ethidium bromide staining in presence of 100 uM of sodium benzoate and 1 mol equivalent of copper chloride
Nucleic Acid [13] = experiment: Inhibition of Escherichia coli pUC19 DNA photocleavage assessed as conversion of supercoiled DNA to linear form of DNA at 10 uM after 1 hr followed by irradiated for 60 mins by ethidium bromide staining in presence of 100 uM of sodium azide and 1 mol equivalent of copper chloride
Nucleic Acid [14] = experiment: Inhibition of Escherichia coli pUC19 DNA photocleavage at 10 uM after 1 hr followed by irradiated for 60 mins by ethidium bromide staining in presence of 100 uM of sodium benzoate and 1 mol equivalent of copper chloride
Nucleic Acid [15] = experiment: Inhibition of Escherichia coli pUC19 DNA photocleavage at 10 uM after 1 hr followed by irradiated for 60 mins by ethidium bromide staining in presence of 100 uM of sodium azide and 1 mol equivalent of copper chloride
Nucleic Acid [16] = experiment: Induction of Escherichia coli pUC19 DNA cleavage assessed as conversion of supercoiled DNA to nicked and linear form of DNA at 10 to 30 uM after 1 hr followed by irradiated for 60 mins by ethidium bromide staining in presence of 1 mol equivalent of copper chloride and 150 mM sodium chloride and 240 mM of potassium chloride
Nucleic Acid [17] = experiment: Induction of Escherichia coli pUC19 DNA cleavage assessed as conversion of supercoiled DNA to nicked and linear form of DNA at 10 to 30 uM after 1 hr followed by irradiated for 60 mins by ethidium bromide staining in presence of 1 mol equivalent of copper chloride and 150 mM sodium chloride
Nucleic Acid [18] = experiment: Induction of Escherichia coli pUC19 DNA cleavage assessed as conversion of supercoiled DNA to nicked and linear form of DNA at 10 to 30 uM after 1 hr followed by irradiated for 60 mins by ethidium bromide staining in presence of 1 mol equivalent of copper chloride and 240 mM of potassium chloride
Calf thymus DNA [19] = experiment: Binding affinity to calf thymus DNA at 10 uM by UV-visible spectra analysis in presence of 1 mol equivalent of copper chloride and 260 mM of potassium chloride; conditions: Bos taurus
Calf thymus DNA [20] = experiment: Binding affinity to calf thymus DNA at 10 uM assessed as change in melting temperature; conditions: Bos taurus
Calf thymus DNA [21] = experiment: Binding affinity to calf thymus DNA at 10 uM assessed as change in melting temperature in presence of copper; conditions: Bos taurus

Activity (Nucleic Acid [1]): Active
Activity (Nucleic Acid [2]): Active
Activity (Nucleic Acid [3]): inactive
inhibition (Nucleic Acid [4]): -10%
inhibition (Nucleic Acid [5]): 29%
inhibition (Nucleic Acid [6]): 91%
inhibition (Nucleic Acid [7]): 80%
inhibition (Nucleic Acid [8]): 0%
inhibition (Nucleic Acid [9]): 34%
inhibition (Nucleic Acid [10]): -7%
inhibition (Nucleic Acid [11]): -1%
inhibition (Nucleic Acid [12]): 88%
inhibition (Nucleic Acid [13]): 82%
inhibition (Nucleic Acid [14]): 0%
inhibition (Nucleic Acid [15]): 5%
Activity (Nucleic Acid [16]): Active
Activity (Nucleic Acid [17]): Active
Activity (Nucleic Acid [18]): Active
Activity (Calf thymus DNA [19]): Active
Tm (Calf thymus DNA [20]): 79 °C
Tm (Calf thymus DNA [21]): 80 °C
SMILES: Nc1ccc2cc3ccc(NCc4cccc(CNc5ccc6cc7ccc(N)cc7nc6c5)n4)cc3nc2c1
